Test system: mammal cells
Assay: not given
Conditions: Rosenzweig et al. (1999); cited from earlier work

Row | SMILES | increase in sensitivity to ionising irradiation in cellular terms
1 | O=c1cc(N2CCOCC2)oc2c(-c3ccccc3)cccc12 [LY294002] | only a weak increase in sensitivity to ionising irradiation

Molecular target: T1, DNA-PK (Homo sapiens (Human), UniProt P78527)
Assay: DNA-PK/biochemical assay (FlashPlate kinase assay)
Conditions: 5 μM ATP, 90 min, room temperature; read-out: Binding DNA-PK IC50
Procedure: […] To this end, 1.5 μg of the DNA-PK/protein complex and 100 ng of biotinylated substrate, such as, for example, PESQEAFADLWKK biotin-NH2 (“biotin-DNA-PK peptide”), in a total volume of 36.5 μl (34.25 mM HEPES/KOH, 7.85 mM Tris-HCl, 68.5 mM KCl, 5 μM ATP, 6.85 mM MgCl2, 0.5 mM EDTA, 0.14 mM EGTA, 0.69 mM DTT, pH 7.4), were incubated at room temperature for 90 min with 500 ng of DNA from calf thymus, 0.1 μCi of 33P-ATP and 1.8% of DMSO per well with or without the test compound. The reaction was stopped using 50 μl/well of 200 mM EDTA. After incubation for a further 30 min at room temperature, the liquid was removed. Each well was washed three times with 100 μl of 0.9% sodium chloride solution. A non-specific reaction (blank value) was determined using 10 μM of a proprietary kinase inhibitor. The radioactivity measurement was carried out by means of a TopCount. IC50 values were calculated in RS1. • Literature: Kashishian et al. (2003) Molecular Cancer Therapeutics 1257.

Row | IC50 [nM] | SMILES
2 | < 100 | COc1cccc(CC2CCCN(c3ncnc4cc(N5CCOCC5)ccc34)C2)c1 (centres unmarked) [compound 41, 4-[3-(3-Methoxy-benzyl)piperidin-1-yl]-7-morpholin-4-yl-quinazoline]
3 | < 100 | O[C@H](c1nccs1)C1CCCN(c2ncnc3cc(N4CCOCC4)ccc23)C1 (some centres unmarked) [compound 66]
4 | < 100 | Clc1nc(N2CCCC(Cn3ccnc3)C2)c2ccc(N3CCOCC3)cc2n1 (centres unmarked) [compound 25, 2-Chloro-4-(3-imidazol-1-ylmethyl-piperidin-1-yl)-7-morpholin-4-yl-quinazoline]
5 | < 100 | Cn1ccnc1CC1CCCN(c2ncnc3cc(N4CCOCC4)ccc23)C1 (centres unmarked) [compound 29, 4-[3-(1-Methyl-1H-imidazol-2-ylmethyl)-piperidin-1-yl]-7-morpholin-4-yl-quinazoline]
6 | < 100 | c1ccc(C2CCCN(c3ncnc4cc(N5CCOCC5)ccc34)C2)cc1 (centres unmarked) [compound 4, 7-Morpholin-4-yl-4-(3-phenylpiperidin-1-yl)quinazoline]
7 | > 1000 | Oc1nc(N2CCCCC2)c2ccc(N3CCOCC3)cc2n1 [compound 54, 7-Morpholin-4-yl-4-piperidin-1-yl-quinazolin-2-ol]
8 | < 100 | O=C(NC1CCCN(c2nc(Cl)nc3cc(N4CCOCC4)ccc23)C1)c1nccs1 (centres unmarked) [compound 60, N-[1-(2-Chloro-7-morpholin-4-yl-quinazolin-4-yl)-piperidin-3-yl]-thiazole-2-carboxamide]
9 | 500 to 1000 | NC(=O)C1CCCN(c2ncnc3cc(N4CCOCC4)ccc23)C1 (centres unmarked) [compound 17, 1-(7-Morpholin-4-yl-quinazoline-4-yl)-piperidin-3-carboxamide]
10 | < 100 | OC(c1ncco1)C1CCCN(c2ncnc3cc(N4CCOCC4)ccc23)C1 (centres unmarked) [compound 53, [1-(7-Morpholin-4-yl quinazolin-4-yl)-piperidin-3-yl]-oxazol-2-yl-methanol]
11 | 100 to 500 | O=C(NC1CCCN(c2nc(Cl)nc3cc(N4CCOCC4)ccc23)C1)c1cccs1 (centres unmarked) [compound 64, N-[1-(2-Chloro-7-morpholin-4-yl-quinazolin-4-yl)-piperidin-3-yl]-thiophene-2-carboxamide]
12 | < 100 | c1ccn(CC2CCCN(c3ncnc4cc(N5CCOCC5)ccc34)C2)c1 (centres unmarked) [compound 13, 7-Morpholin-4-yl-4-(3-pyrrol-1-ylmethyl-piperidin-1-yl)-quinazoline]

More lines, now with the values behind:

Row | SMILES | IC50 [nM]
13 | FC(F)(F)c1cccc(C2CCCN(c3ncnc4cc(N5CCOCC5)ccc34)C2)c1 (centres unmarked) [compound 28, 7-Morpholin-4-yl-4-[3-(3-trifluoromethyl-phenyl)piperidin-1-yl]quinazoline] | 100 to 500
14 | O=C(c1ccc(F)cc1)C1CCCN(c2ncnc3cc(N4CCOCC4)ccc23)C1 (centres unmarked) [compound 16, (4-Fluorophenyl)-[1-(7-morpholin-4-yl-quinazoline-4-yl)-piperidin-3-yl]-methanone] | 100 to 500
15 | OC1(c2ccccc2)CCCN(c2ncnc3cc(N4CCOCC4)ccc23)C1 (centres unmarked) [compound 15, 1-(7-Morpholin-4-yl-quinazoline-4-yl)-3-phenylpiperidin-3-ol] | 500 to 1000
16 | COc1cccc(C2CCCN(c3ncnc4cc(N5CCOCC5)ccc34)C2)c1 (centres unmarked) [compound 22, 4-[3-(3-Methoxy-phenyl)piperidin-1-yl]-7-morpholin-4-yl-quinazoline] | < 100
17 | N#Cc1nc(N2CCCCC2)c2ccc(N3CCOCC3)cc2n1 [compound 58, 7-Morpholin-4-yl-4-piperidin-1-yl-quinazoline-2-carbonitrile] | 100 to 500
18 | C1=C(c2cccs2)CN(c2ncnc3cc(N4CCOCC4)ccc23)CC1 [compound 37, 7-Morpholin-4-yl-4-(5-thiophen-2-yl-3,6-dihydro-2H-pyridin-1-yl)quinazoline] | 100 to 500

Test system: kinases of the PI3K isoenzyme family
Assay: not given
Conditions: cited from earlier work

Row | SMILES | inhibition of PI3K isoenzyme family kinases
19 | CCN1CCN(CC(=O)Nc2ccc(-c3cccc4c(=O)cc(N5CCOCC5)oc34)c3sc4ccccc4c23)CC1 [KU-0060648] | potently inhibited

Molecular target: T1, DNA-PK
Assay: not given
Conditions: ATP-competitive; Hardcastle et al. (2005); cited from earlier work

Row | SMILES | IC50 [nM]
20 | O=c1cc(N2CCOCC2)oc2c(-c3cccc4c3sc3ccccc34)cccc12 [NU-7441] | 20
